Assay results from ChEMBL document CHEMBL1201862, “PubChem BioAssay data set” (2004).
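Dose response: 5 concentrations. Exposure: 48 h. Format: 96-well plates. Endpoint: linear interpolation; highest concentration if not reached. GI50: concentration for 50% inhibition of growth.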 The source made the active and inactive calls. Cut-off read from the data, not from the text of the source: active = GI50 up to about 1.1 µM and inactive = higher.

What was measured:
Assay in all cases: DTP human tumour cell line panel, 48 h
OVCAR-4 = test system: OVCAR-4
SF-295 = test system: SF-295
HOP-62 = test system: HOP-62
SN12C = test system: SN12C
SR = test system: SR
LOX IMVI = test system: LOX IMVI
MOLT-4 = test system: MOLT-4
CAKI-1 = test system: CAKI-1
NCI/ADR-RES = test system: NCI/ADR-RES
MDA-MB-435 = test system: MDA-MB-435
CCRF-CEM = test system: CCRF-CEM
U-251 = test system: U-251
NCI-H23 = test system: NCI-H23
HOP-92 = test system: HOP-92
OVCAR-8 = test system: OVCAR-8
SF-268 = test system: SF-268
TK-10 = test system: TK-10
HL-60 = test system: HL-60
SK-MEL-5 = test system: SK-MEL-5
A498 = test system: A498

Measured: GI50

O=C1NC(N2CCCCC2)=N/C1=C\c1ccccc1
inactive: OVCAR-4 > 100 µM | SF-295 > 100 µM | HOP-62 > 100 µM | SN12C > 100 µM | SR > 100 µM | LOX IMVI > 100 µM | MOLT-4 > 100 µM | CAKI-1 > 100 µM | NCI/ADR-RES > 100 µM | MDA-MB-435 > 100 µM | CCRF-CEM > 100 µM | U-251 > 100 µM | NCI-H23 > 100 µM | HOP-92 > 100 µM | OVCAR-8 > 100 µM | SF-268 > 100 µM | TK-10 > 100 µM | HL-60 > 100 µM

Cc1cc(S(=O)(=O)NC2=NNC(C)CN2)c(S)cc1Cl (stereo not given)
inactive: OVCAR-4 44.1 µM | SF-295 46.3 µM | HOP-62 48.8 µM | SN12C 80.5 µM | SR 37.2 µM | LOX IMVI 18.4 µM | MOLT-4 44.2 µM | CAKI-1 56.8 µM | NCI/ADR-RES 33.4 µM | MDA-MB-435 32.2 µM | SK-MEL-5 35.1 µM | CCRF-CEM 36.9 µM | U-251 39.2 µM | NCI-H23 48.6 µM | A498 21.6 µM | OVCAR-8 32.1 µM | SF-268 15.9 µM | TK-10 > 100 µM | HL-60 > 100 µM

O=C1Oc2ccccc2C(=O)/C1=C/NC(=S)NCCc1ccccc1
inactive: OVCAR-4 34.9 µM | SF-295 38.5 µM | HOP-62 51.8 µM | SN12C 40 µM | SR 14.6 µM | LOX IMVI 42.9 µM | MOLT-4 57.1 µM | CAKI-1 35.3 µM | NCI/ADR-RES 38.7 µM | MDA-MB-435 48.6 µM | SK-MEL-5 45.7 µM | CCRF-CEM 27.9 µM | U-251 53.6 µM | NCI-H23 33.1 µM | HOP-92 23.7 µM | OVCAR-8 29.2 µM | SF-268 77.1 µM | TK-10 32.1 µM | HL-60 1.85 µM

O=C(O)c1ccc(C2=Nc3cccc4cccc(c34)N2)cc1
inactive: OVCAR-4 > 100 µM | SF-295 > 100 µM | HOP-62 > 100 µM | SN12C > 100 µM | SR 30.6 µM | LOX IMVI > 100 µM | MOLT-4 25.4 µM | CAKI-1 > 100 µM | NCI/ADR-RES > 100 µM | MDA-MB-435 > 100 µM | SK-MEL-5 > 100 µM | CCRF-CEM 24.7 µM | U-251 > 100 µM | NCI-H23 > 100 µM | HOP-92 45.6 µM | OVCAR-8 > 100 µM | SF-268 > 100 µM | TK-10 > 100 µM | HL-60 19.6 µM

Cc1ccc(C(=O)O)c(CC2Cc3c(C)cccc3C2=O)c1 (stereo not given)
inactive: OVCAR-4 > 100 µM | SF-295 > 100 µM | HOP-62 > 100 µM | SN12C > 100 µM | SR > 100 µM | LOX IMVI 90.4 µM | MOLT-4 > 100 µM | CAKI-1 > 100 µM | NCI/ADR-RES > 100 µM | MDA-MB-435 > 100 µM | SK-MEL-5 > 100 µM | CCRF-CEM > 100 µM | U-251 > 100 µM | NCI-H23 > 100 µM | HOP-92 > 100 µM | OVCAR-8 > 100 µM | SF-268 > 100 µM | TK-10 > 100 µM | HL-60 > 100 µM

CSc1cc(Cl)c(C)cc1S(=O)(=O)NC(=O)NNc1cnc2ccccc2n1
inactive: OVCAR-4 > 100 µM | SF-295 > 100 µM | HOP-62 > 100 µM | SN12C > 100 µM | SR > 100 µM | LOX IMVI > 100 µM | MOLT-4 17.5 µM | CAKI-1 > 100 µM | NCI/ADR-RES > 100 µM | MDA-MB-435 > 100 µM | SK-MEL-5 > 100 µM | CCRF-CEM > 100 µM | U-251 > 100 µM | A498 > 100 µM | OVCAR-8 > 100 µM | SF-268 > 100 µM

Cc1cc(C#N)c(Nc2c(C)cccc2[N+](=O)[O-])s1
inactive: OVCAR-4 57.4 µM | SF-295 28.8 µM | HOP-62 25.4 µM | SN12C > 100 µM | SR 49.7 µM | MOLT-4 92 µM | CAKI-1 36.9 µM | NCI/ADR-RES 25.4 µM | MDA-MB-435 61 µM | CCRF-CEM 16.6 µM | U-251 35.7 µM | NCI-H23 39.7 µM | A498 66.7 µM | HOP-92 24.3 µM | OVCAR-8 42.9 µM | SF-268 28 µM

CCN(CC)C1Oc2cc3c(cc2C(c2cccc(OC)c2O)C1C)OCO3 (stereo not given)
inactive: OVCAR-4 7.14 µM | SF-295 3.08 µM | HOP-62 5.28 µM | SN12C 4.6 µM | SR 4.75 µM | LOX IMVI 4.31 µM | MOLT-4 3.68 µM | CAKI-1 5.6 µM | NCI/ADR-RES 4.62 µM | MDA-MB-435 1.74 µM | SK-MEL-5 2.97 µM | CCRF-CEM 3.94 µM | U-251 3.69 µM | NCI-H23 5.79 µM | A498 2.36 µM | OVCAR-8 13.7 µM | SF-268 6.62 µM | TK-10 16.4 µM | HL-60 2.99 µM

O=C1CC(=O)NC(NN2C(=O)/C(=C/C(=O)c3ccco3)N=C2c2ccccc2)=N1
inactive: OVCAR-4 31 µM | SF-295 94.2 µM | HOP-62 > 100 µM | SN12C > 100 µM | SR 14.6 µM | MOLT-4 22.9 µM | CAKI-1 > 100 µM | NCI/ADR-RES 41.1 µM | MDA-MB-435 63.7 µM | CCRF-CEM 20.6 µM | U-251 47.5 µM | NCI-H23 > 100 µM | A498 > 100 µM | HOP-92 24.8 µM | OVCAR-8 44.5 µM | SF-268 > 100 µM | TK-10 > 100 µM

CCOC(=O)c1ccc(C(=O)C(C(C)=O)C(=O)OC(C)(C)C)n1C (stereo not given)
inactive: OVCAR-4 > 100 µM | SF-295 > 100 µM | HOP-62 > 100 µM | SN12C > 100 µM | SR 57.4 µM | LOX IMVI > 100 µM | MOLT-4 67.5 µM | CAKI-1 > 100 µM | NCI/ADR-RES > 100 µM | MDA-MB-435 > 100 µM | SK-MEL-5 > 100 µM | CCRF-CEM 71.3 µM | U-251 > 100 µM | NCI-H23 > 100 µM | A498 > 100 µM | OVCAR-8 > 100 µM | SF-268 > 100 µM | TK-10 > 100 µM | HL-60 67.9 µM

Clc1ccc(OCC2NC3CCC2CC3)cn1 (stereo not given)
inactive: OVCAR-4 37.9 µM | SF-295 19.8 µM | HOP-62 22.8 µM | SN12C 28.4 µM | SR 18.7 µM | LOX IMVI 18.4 µM | MOLT-4 17.2 µM | CAKI-1 42.5 µM | NCI/ADR-RES 50.1 µM | MDA-MB-435 20.4 µM | SK-MEL-5 17.6 µM | CCRF-CEM 25 µM | U-251 16.3 µM | NCI-H23 49.2 µM | HOP-92 35.4 µM | OVCAR-8 31.5 µM | SF-268 51.6 µM | TK-10 42.3 µM | HL-60 24.4 µM
